The record followed here is patent US8415486B2, “IAP inhibitors” (TetraLogic Pharmaceuticals Corp., priority 2009, dated 2013).

One experiment has as its target T1, cIAP-1 BIR-3 (Homo sapiens, UniProt Q13490).
T1 construct: 40 nM of the respective IAP BIR3
Nature of the experiment: Fluorescence polarization binding to cIAP-1 BIR-3 with labeled peptide AbuRPF-K(5-Fam)-NH2. Particulars: 40 nM BIR3, 5 nM labeled peptide, reported as ranges, read-out: KD (c-IAP-1 BIR3). The essentials: (§1)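 Competitive FP: compounds titrated against 5 nM AbuRPF-K(5-Fam)-NH2 tracer and 40 nM BIR3 protein, 15 min at RT in 0.1 M potassium phosphate pH 7.5 with bovine γ-globulin. Polarization read at 485/520 nm; KD reported in ranges A <0.1, B 0.1–1, C >1–10, D >10 μM.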

In another experiment the target is T2, XIAP BIR-3 (Homo sapiens, UniProt P98170).
T2 construct: 40 nM of the respective IAP BIR3
T2 sequence (P98170 241-356 limits assumed): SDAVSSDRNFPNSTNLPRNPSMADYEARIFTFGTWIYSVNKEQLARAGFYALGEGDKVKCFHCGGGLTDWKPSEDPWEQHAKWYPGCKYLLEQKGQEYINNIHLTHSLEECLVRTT
Nature of the experiment: Fluorescence polarization binding to XIAP BIR-3 with labeled peptide AbuRPF-K(5-Fam)-NH2. The settings on record: 40 nM BIR3, 5 nM labeled peptide, reported as ranges. The essentials:
as §1

Experiment [1] has as its system ovarian cancer cell line, SK-OV-3. Briefly: SK-OV-3 cell growth inhibition (MTT, 72 hrs). The experiment is classed as cell-based. Particulars: Homo sapiens, concentration giving 50% cell survival, reported as ranges. The method in brief:
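After overnight seeding in McCoy's medium with 10% FBS, SK-OV-3 cells were exposed to compound at 0.003-10 μM for 72 hrs at 37° C. MTT was then added for 3 h, with DMSO solubilization and OD read at 535 nm. CC50 is the concentration giving 50% survival relative to untreated control, reported as ranges.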

T1 sequence (Q13490 253-363 limits assumed): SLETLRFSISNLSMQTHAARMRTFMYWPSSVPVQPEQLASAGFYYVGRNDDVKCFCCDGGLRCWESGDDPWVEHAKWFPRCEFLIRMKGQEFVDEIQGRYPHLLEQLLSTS

A word on the Kd: it is the equilibrium constant for the complex coming apart. As a reminder, the CC50 is the concentration giving 50% cytotoxicity. A low value points to greater toxicity to the cells. For `CN[C@@H](C)C(=O)N[C@H](C(=O)N1CC[C@@H]2[C@H]1[C@@H](OC(=O)N(c1ccccc1)c1ccccc1)CN2C(=O)NC(C)C)C(C)(C)C` [Example 48, Diphenyl-carbamic acid 4-[3,3-dimethyl-2-(2-methylamino-propionylamino)-butyryl]-1-isopropylcarbamoyl-octahydro-pyrrolo[3,2-b]pyrrol-3-yl ester], the Kd is under 0.1 µM on cIAP-1 BIR-3 and 0.1 to 1 µM at XIAP BIR-3. This compound registered a CC50 in experiment [1] of 0.1 to 1 µM.

Turning to `CN[C@@H](C)C(=O)N[C@H](C(=O)N1CC[C@@H]2[C@H]1[C@@H](OC(=O)Nc1cccc3ccccc13)CN2C(=O)NC(C)C)C(C)(C)C` [Example 49, Naphthalen-1-yl-carbamic acid 4-[3,3-dimethyl-2-(2-methylamino-propionylamino)-butyryl]-1-isopropylcarbamoyl-octahydro-pyrrolo[3,2-b]pyrrol-3-yl ester], the dissociation constant Kd was under 0.1 µM at cIAP-1 BIR-3 and 0.1 to 1 µM at XIAP BIR-3. The compound also had a CC50 in experiment [1] of under 0.1 µM.

For `CN[C@@H](C)C(=O)N[C@H](C(=O)N1CC[C@@H]2[C@H]1[C@@H](OC(=O)N(C)c1ccccc1)CN2C(=O)NC(C)C)C(C)(C)C` [Example 50, Methyl-phenyl-carbamic acid 4-[3,3-dimethyl-2-(2-methylamino-propionylamino)-butyryl]-1-isopropylcarbamoyl-octahydro-pyrrolo[3,2-b]pyrrol-3-yl ester], the Kd was under 0.1 µM on cIAP-1 BIR-3 and 0.1 to 1 µM on XIAP BIR-3. For the same compound, the CC50 in experiment [1] is 0.1 to 1 µM.

As to `CN[C@@H](C)C(=O)N[C@H](C(=O)N1CC[C@@H]2[C@H]1[C@@H](OC(=O)Nc1ccc3ccccc3c1)CN2C(=O)NC(C)C)C(C)(C)C` [Example 51, Naphthalen-2-yl-carbamic acid 4-[3,3-dimethyl-2-(2-methylamino-propionylamino)-butyryl]-1-isopropylcarbamoyl-octahydro-pyrrolo[3,2-b]pyrrol-3-yl ester], the values for the dissociation constant Kd on cIAP-1 BIR-3 and at XIAP BIR-3 were under 0.1 µM and 0.1 to 1 µM, respectively. Further, the CC50 in experiment [1] lay within 1 to 10 µM.

Take `CCNC(=O)O[C@H]1CN(C(=O)NC(C)C)[C@@H]2CCN(C(=O)[C@@H](NC(=O)[C@H](C)NC)C(C)(C)C)[C@H]12` [Example 52, Ethyl-carbamic acid 4-[3,3-dimethyl-2-(2-methylamino-propionylamino)-butyryl]-1-isopropylcarbamoyl-octahydro-pyrrolo[3,2-b]pyrrol-3-yl ester]: the results for the Kd at cIAP-1 BIR-3 and on XIAP BIR-3 were under 0.1 µM and 1 to 10 µM, respectively. The same compound returned a CC50 in experiment [1] of 1 to 10 µM.

For the compound `CCCCNC(=O)O[C@H]1CN(C(=O)NC(C)C)[C@@H]2CCN(C(=O)[C@@H](NC(=O)[C@H](C)NC)C(C)(C)C)[C@H]12` [Example 53, Butyl-carbamic acid 4-[3,3-dimethyl-2-(2-methylamino-propionylamino)-butyryl]-1-isopropylcarbamoyl-octahydro-pyrrolo[3,2-b]pyrrol-3-yl ester], the dissociation constant (Kd) at cIAP-1 BIR-3 is under 0.1 µM; on XIAP BIR-3, 0.1 to 1 µM. Moreover, in experiment [1], the 50% cytotoxic concentration (CC50) lay within 0.1 to 1 µM.

`CN[C@@H](C)C(=O)N[C@H](C(=O)N1CC[C@@H]2[C@H]1[C@@H](OC(=O)NC(C)C)CN2C(=O)NC(C)C)C(C)(C)C` [Example 54, Isopropyl-carbamic acid 4-[3,3-dimethyl-2-(2-methylamino-propionylamino)-butyryl]-1-isopropylcarbamoyl-octahydro-pyrrolo[3,2-b]pyrrol-3-yl ester]: the Kd at cIAP-1 BIR-3 is under 0.1 µM; on XIAP BIR-3, 1 to 10 µM. The compound further came in with a 50% cytotoxic concentration (CC50) in experiment [1] of 1 to 10 µM.

In the case of `CN[C@@H](C)C(=O)N[C@H](C(=O)N1CC[C@@H]2[C@H]1[C@@H](OC(=O)NC(C)(C)C)CN2C(=O)NC(C)C)C(C)(C)C` [Example 55, tert-Butyl-carbamic acid 4-[3,3-dimethyl-2-(2-methylamino-propionylamino)-butyryl]-1-isopropylcarbamoyl-octahydro-pyrrolo[3,2-b]pyrrol-3-yl ester], the Kd at cIAP-1 BIR-3 is under 0.1 µM; on XIAP BIR-3 it was 1 to 10 µM. This compound also came in with a CC50 in experiment [1] of 0.1 to 1 µM.

As to `CN[C@@H](C)C(=O)N[C@H](C(=O)N1CC[C@@H]2[C@H]1[C@@H](OC(=O)NC1CCCC1)CN2C(=O)NC(C)C)C(C)(C)C` [Example 56, Cyclopentyl-carbamic acid 4-[3,3-dimethyl-2-(2-methylamino-propionylamino)-butyryl]-1-isopropylcarbamoyl-octahydro-pyrrolo[3,2-b]pyrrol-3-yl ester], the Kd on cIAP-1 BIR-3 is under 0.1 µM; on XIAP BIR-3, 0.1 to 1 µM. This compound displayed a half-maximal cytotoxic concentration (CC50) in experiment [1] of 0.1 to 1 µM.

Turning to `CN[C@@H](C)C(=O)N[C@H](C(=O)N1CC[C@@H]2[C@H]1[C@@H](OC(=O)NC1CCCCC1)CN2C(=O)NC(C)C)C(C)(C)C` [Example 57, Cyclohexyl-carbamic acid 4-[3,3-dimethyl-2-(2-methylamino-propionylamino)-butyryl]-1-isopropylcarbamoyl-octahydro-pyrrolo[3,2-b]pyrrol-3-yl ester], the Kd at cIAP-1 BIR-3 is under 0.1 µM; on XIAP BIR-3 it was 0.1 to 1 µM. The compound further returned a CC50 in experiment [1] of under 0.1 µM.

`CN[C@@H](C)C(=O)N[C@H](C(=O)N1CC[C@@H]2[C@H]1[C@@H](OC(=O)N1CCCC1)CN2C(=O)NC(C)C)C(C)(C)C` [Example 58, Pyrrolidine-1-carboxylic acid 4-[3,3-dimethyl-2-(2-methylamino-propionylamino)-butyryl]-1-isopropylcarbamoyl-octahydro-pyrrolo[3,2-b]pyrrol-3-yl ester]: the figures for the Kd on cIAP-1 BIR-3 and at XIAP BIR-3 were 0.1 to 1 µM and 1 to 10 µM, respectively. The compound further showed a cytotoxic concentration (CC50) in experiment [1] of 1 to 10 µM.

In the case of `CN[C@@H](C)C(=O)N[C@H](C(=O)N1CC[C@@H]2[C@H]1[C@@H](OC(=O)N1CCCCC1)CN2C(=O)NC(C)C)C(C)(C)C` [Example 59, Piperidine-1-carboxylic acid 4-[3,3-dimethyl-2-(2-methylamino-propionylamino)-butyryl]-1-isopropylcarbamoyl-octahydro-pyrrolo[3,2-b]pyrrol-3-yl ester], the figures for the dissociation constant (Kd) on cIAP-1 BIR-3 and at XIAP BIR-3 were under 0.1 µM and 1 to 10 µM, respectively. Besides, the half-maximal cytotoxic concentration (CC50) in experiment [1] fell in the range of 1 to 10 µM.

For `CN[C@@H](C)C(=O)N[C@H](C(=O)N1CC[C@@H]2[C@H]1[C@@H](OC(=O)N1CCOCC1)CN2C(=O)NC(C)C)C(C)(C)C` [Example 60, Morpholine-4-carboxylic acid 4-[3,3-dimethyl-2-(2-methylamino-propionylamino)-butyryl]-1-isopropylcarbamoyl-octahydro-pyrrolo[3,2-b]pyrrol-3-yl ester], the dissociation constant (Kd) on cIAP-1 BIR-3 was under 0.1 µM; at XIAP BIR-3, 1 to 10 µM. This compound displayed a half-maximal cytotoxic concentration (CC50) in experiment [1] of 1 to 10 µM.

Consider `CN[C@@H](C)C(=O)N[C@H](C(=O)N1CC[C@@H]2[C@H]1[C@@H](O)CN2C(=O)NC(C)C)C(C)(C)C` [Example 61, 4-[3,3-Dimethyl-2-(2-methylamino-propionylamino)-butyryl]-3-hydroxy-hexahydro-pyrrolo[3,2-b]pyrrole-1-carboxylic acid isopropylamide], for which the results for the dissociation constant Kd on cIAP-1 BIR-3 and at XIAP BIR-3 were 0.1 to 1 µM and over 10 µM, respectively. In experiment [1], this compound yielded a CC50 of 1 to 10 µM.

As for `CNC(=O)N1C[C@H](COc2ccc(F)c(F)c2)[C@@H]2[C@H]1CCN2C(=O)[C@@H](NC(=O)[C@H](C)NC)C(C)(C)C` [Example 62, 3-(3,4-Difluoro-phenoxymethyl)-4-[3,3-dimethyl-2-(2-methylamino-propionylamino)-butyryl]-hexahydro-pyrrolo[3,2-b]pyrrole-1-carboxylic acid methylamide], the Kd on cIAP-1 BIR-3 and on XIAP BIR-3 was under 0.1 µM each time. Further, in experiment [1], the cytotoxic concentration (CC50) is under 0.1 µM.

Consider `CN[C@@H](C)C(=O)N[C@H](C(=O)N1CC[C@@H]2[C@H]1[C@@H](COc1ccc(F)c(F)c1)CN2S(C)(=O)=O)C(C)(C)C` [Example 63, N-{1-[6-(3,4-Difluoro-phenoxymethyl)-4-methanesulfonyl-hexahydro-pyrrolo[3,2-b]pyrrole-1-carbonyl}-2,2-dimethyl-propyl]-2-methylamino propionamide], for which the Kd on cIAP-1 BIR-3 and at XIAP BIR-3 was under 0.1 µM throughout. Further, the cytotoxic concentration (CC50) in experiment [1] was under 0.1 µM.

On to `CN[C@@H](C)C(=O)N[C@H](C(=O)N1CC[C@H]2NC[C@H](COc3ccc(F)c(F)c3)[C@H]21)C(C)(C)C` [Example 64, N-{1-[6-(3,4-Difluoro-phenoxymethyl)-hexahydro-pyrrolo[3,2-b]pyrrole-1-carbonyl]-2,2-dimethyl-propyl}-2-methylamino propionamide], for which the Kd at cIAP-1 BIR-3 and at XIAP BIR-3 was under 0.1 µM throughout. This compound displayed a CC50 in experiment [1] of under 0.1 µM.

Take `CN[C@@H](C)C(=O)N[C@H](C(=O)N1CC[C@@H]2[C@H]1[C@@H](COc1ccc(F)c(F)c1)CN2C(C)=O)C(C)(C)C` [Example 65, N-{1-[4-Acetyl-6-(3,4-difluoro-phenoxymethyl)-hexahydro-pyrrolo[3,2-b]pyrrole-1-carbonyl]-2,2-dimethyl-propyl}-2-methylamino propionamide]: the equilibrium dissociation constant (Kd) at cIAP-1 BIR-3 and on XIAP BIR-3 was under 0.1 µM in each case. This compound registered a cytotoxic concentration (CC50) in experiment [1] of under 0.1 µM.

As for `CN[C@@H](C)C(=O)N[C@H](C(=O)N1CC[C@@H]2[C@H]1[C@@H](COc1ccc(F)c(F)c1)CN2C(=O)C(C)=O)C(C)(C)C` [Example 66, N-{1-[6-(3,4-Difluoro-phenoxymethyl)-4-(2-oxo-propionyl)-hexahydro-pyrrolo[3,2-b]pyrrole-1-carbonyl]-2,2-dimethyl-propyl}-2-methylamino propionamide], the equilibrium dissociation constant (Kd) at cIAP-1 BIR-3 and on XIAP BIR-3 was under 0.1 µM throughout. Further, the cytotoxic concentration (CC50) in experiment [1] was under 0.1 µM.
